From patent publication US4471131A, “Novel silyl esters of N-phosphonomethylglycine” (Monsanto Company, priority 1983, dated 1984)

Experiments:
Assay in all cases: post-emergence herbicidal activity, greenhouse
Type in all cases: in vivo
Sugar Beet = conditions: Table III
How it was run: (§1)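 Plants grown from seed or vegetative propagules in topsoil pans on a greenhouse sand bench, watered from below, were atomizer-sprayed at two to three weeks of age. The spray carried about 0.4% by weight emulsifier. Injury relative to unsprayed control pans was scored approximately two and four weeks after treatment.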

Wild Buckwheat = conditions: Table III
How it was run: as §1

Common Lambsquarters = tested on: Common Lambsquarters
How it was run: as §1

Quackgrass = conditions: Table II
How it was run: as §1

Canada Thistle = conditions: Table II
How it was run: as §1

Cocklebur = tested on: Cocklebur
How it was run: as §1

Downy Brome = tested on: Downy Brome
How it was run: as §1

Yellow Nutsedge = conditions: Table II
How it was run: as §1

Hemp Sesbania = conditions: Table III
How it was run: as §1

[1] = 2 WAT, 1.1 kg/h, formulated in anhydrous tetrahydrofuran
[2] = 2 WAT, 5.6 kg/h, formulated in anhydrous tetrahydrofuran
[3] = 2 WAT, .28 kg/h, formulated in anhydrous tetrahydrofuran
[4] = 4 WAT, 1.1 kg/h, formulated in anhydrous tetrahydrofuran
[5] = 4 WAT, 5.6 kg/h, formulated in anhydrous tetrahydrofuran
[6] = 4 WAT, .28 kg/h, formulated in anhydrous tetrahydrofuran
[7] = Table II, 2 WAT, 5.6 kg/h, formulated in anhydrous tetrahydrofuran
[8] = Table II, 2 WAT, 11.2 kg/h, formulated in anhydrous tetrahydrofuran
[9] = Table II, 4 WAT, 5.6 kg/h, formulated in anhydrous tetrahydrofuran
[10] = Table II, 4 WAT, 11.2 kg/h, formulated in anhydrous tetrahydrofuran
[11] = Table III, 2 WAT, 1.1 kg/h, formulated in anhydrous tetrahydrofuran
[12] = Table III, 2 WAT, 5.6 kg/h, formulated in anhydrous tetrahydrofuran
[13] = Table III, 2 WAT, .28 kg/h, formulated in anhydrous tetrahydrofuran
[14] = Table III, 4 WAT, 1.1 kg/h, formulated in anhydrous tetrahydrofuran
[15] = Table III, 4 WAT, 5.6 kg/h, formulated in anhydrous tetrahydrofuran
[16] = Table III, 4 WAT, .28 kg/h, formulated in anhydrous tetrahydrofuran
[17] = 2 WAT, 11.2 kg/h, formulated in anhydrous tetrahydrofuran
[18] = 4 WAT, 11.2 kg/h, formulated in anhydrous tetrahydrofuran

CCCCOC(=O)CNCP(=O)(O)O[Si](c1ccccc1)(c1ccccc1)C(C)(C)C [Ex. 6, Glycine, N--((([(1,1-Dimethylethyl)Diphenylsilyl]Oxy)Hydroxyphosphinyl)methyl)-Butyl Ester]
3 (75-99% inhibition): Plant Response Index (M) (Sugar Beet; 4 WAT, 5.6 kg/h) | Plant Response Index (Q) (Wild Buckwheat; 4 WAT, 5.6 kg/h) | Plant Response Index (E) (Common Lambsquarters; Table II, 2 WAT, 11.2 kg/h) | Plant Response Index (E) (Common Lambsquarters; [8]) | Plant Response Index (E) (Common Lambsquarters; [9]) | Plant Response Index (E) (Common Lambsquarters; Table III, 2 WAT, 1.1 kg/h) | Plant Response Index (E) (Common Lambsquarters; [11]) | Plant Response Index (E) (Common Lambsquarters; Table III, 2 WAT, 5.6 kg/h) | Plant Response Index (E) (Common Lambsquarters; [12]) | Plant Response Index (E) (Common Lambsquarters; Table III, 2 WAT, .28 kg/h) | Plant Response Index (E) (Common Lambsquarters; Table III, 4 WAT, 1.1 kg/h) | Plant Response Index (E) (Common Lambsquarters; Table III, 4 WAT, 5.6 kg/h) | Plant Response Index (A) (Canada Thistle; 2 WAT, 11.2 kg/h) | Plant Response Index (B) (Cocklebur; Table III, 2 WAT, 5.6 kg/h) | Plant Response Index (B) (Cocklebur; Table III, 4 WAT, 5.6 kg/h) | Plant Response Index (J) (Downy Brome; Table III, 4 WAT, 5.6 kg/h)
4 (100% inhibition): Plant Response Index (E) (Common Lambsquarters; Table II, 4 WAT, 11.2 kg/h) | Plant Response Index (E) (Common Lambsquarters; [10]) | Plant Response Index (E) (Common Lambsquarters; [14]) | Plant Response Index (E) (Common Lambsquarters; [15]) | Plant Response Index (H) (Quackgrass; 4 WAT, 11.2 kg/h) | Plant Response Index (A) (Canada Thistle; 4 WAT, 11.2 kg/h) | Plant Response Index (R) (Hemp Sesbania; [2]) | Plant Response Index (R) (Hemp Sesbania; [5])
0 (0-24% inhibition): Plant Response Index (M) (Sugar Beet; 2 WAT, .28 kg/h) | Plant Response Index (M) (Sugar Beet; [3]) | Plant Response Index (M) (Sugar Beet; [6]) | Plant Response Index (H) (Quackgrass; 2 WAT, 5.6 kg/h) | Plant Response Index (H) (Quackgrass; [2]) | Plant Response Index (H) (Quackgrass; [17]) | Plant Response Index (H) (Quackgrass; 4 WAT, 5.6 kg/h) | Plant Response Index (H) (Quackgrass; [18]) | Plant Response Index (A) (Canada Thistle; 2 WAT, 5.6 kg/h) | Plant Response Index (A) (Canada Thistle; [2]) | Plant Response Index (A) (Canada Thistle; [17]) | Plant Response Index (A) (Canada Thistle; [5]) | Plant Response Index (B) (Cocklebur; Table III, 2 WAT, .28 kg/h) | Plant Response Index (J) (Downy Brome; Table II, 2 WAT, 5.6 kg/h) | Plant Response Index (J) (Downy Brome; [7]) | Plant Response Index (J) (Downy Brome; Table II, 2 WAT, 11.2 kg/h) | Plant Response Index (J) (Downy Brome; [8]) | Plant Response Index (J) (Downy Brome; Table II, 4 WAT, 5.6 kg/h) | Plant Response Index (J) (Downy Brome; [9]) | Plant Response Index (J) (Downy Brome; [10]) | Plant Response Index (J) (Downy Brome; [13]) | Plant Response Index (J) (Downy Brome; [16]) | Plant Response Index (G) (Yellow Nutsedge; 2 WAT, 5.6 kg/h) | Plant Response Index (G) (Yellow Nutsedge; [2]) | Plant Response Index (G) (Yellow Nutsedge; [17]) | Plant Response Index (R) (Hemp Sesbania; [3]) | Plant Response Index (R) (Hemp Sesbania; [4]) | Plant Response Index (R) (Hemp Sesbania; [6])
1 (25-49% inhibition): Plant Response Index (M) (Sugar Beet; 2 WAT, 1.1 kg/h) | Plant Response Index (M) (Sugar Beet; [1]) | Plant Response Index (M) (Sugar Beet; [2]) | Plant Response Index (M) (Sugar Beet; 4 WAT, 1.1 kg/h) | Plant Response Index (M) (Sugar Beet; [4]) | Plant Response Index (M) (Sugar Beet; [5]) | Plant Response Index (Q) (Wild Buckwheat; 2 WAT, .28 kg/h) | Plant Response Index (Q) (Wild Buckwheat; [3]) | Plant Response Index (Q) (Wild Buckwheat; 4 WAT, 1.1 kg/h) | Plant Response Index (Q) (Wild Buckwheat; [6]) | Plant Response Index (E) (Common Lambsquarters; [7]) | Plant Response Index (E) (Common Lambsquarters; [13]) | Plant Response Index (E) (Common Lambsquarters; [16]) | Plant Response Index (H) (Quackgrass; 2 WAT, 11.2 kg/h) | Plant Response Index (H) (Quackgrass; [5]) | Plant Response Index (A) (Canada Thistle; 4 WAT, 5.6 kg/h) | Plant Response Index (A) (Canada Thistle; [18]) | Plant Response Index (B) (Cocklebur; Table II, 2 WAT, 5.6 kg/h) | Plant Response Index (B) (Cocklebur; [7]) | Plant Response Index (B) (Cocklebur; [8]) | Plant Response Index (B) (Cocklebur; Table II, 4 WAT, 5.6 kg/h) | Plant Response Index (B) (Cocklebur; [9]) | Plant Response Index (B) (Cocklebur; [11]) | Plant Response Index (B) (Cocklebur; [13]) | Plant Response Index (B) (Cocklebur; [14]) | Plant Response Index (B) (Cocklebur; [16]) | Plant Response Index (J) (Downy Brome; Table II, 4 WAT, 11.2 kg/h) | Plant Response Index (J) (Downy Brome; Table III, 2 WAT, 1.1 kg/h) | Plant Response Index (J) (Downy Brome; [11]) | Plant Response Index (J) (Downy Brome; Table III, 2 WAT, 5.6 kg/h) | Plant Response Index (J) (Downy Brome; [12]) | Plant Response Index (J) (Downy Brome; Table III, 2 WAT, .28 kg/h) | Plant Response Index (J) (Downy Brome; Table III, 4 WAT, 1.1 kg/h) | Plant Response Index (J) (Downy Brome; [14]) | Plant Response Index (G) (Yellow Nutsedge; 2 WAT, 11.2 kg/h) | Plant Response Index (G) (Yellow Nutsedge; 4 WAT, 5.6 kg/h) | Plant Response Index (G) (Yellow Nutsedge; [5]) | Plant Response Index (G) (Yellow Nutsedge; [18]) | Plant Response Index (R) (Hemp Sesbania; 2 WAT, 1.1 kg/h) | Plant Response Index (R) (Hemp Sesbania; [1]) | Plant Response Index (R) (Hemp Sesbania; 4 WAT, 1.1 kg/h)
2 (50-74% inhibition): Plant Response Index (M) (Sugar Beet; 2 WAT, 5.6 kg/h) | Plant Response Index (Q) (Wild Buckwheat; 2 WAT, 1.1 kg/h) | Plant Response Index (Q) (Wild Buckwheat; [1]) | Plant Response Index (Q) (Wild Buckwheat; 2 WAT, 5.6 kg/h) | Plant Response Index (Q) (Wild Buckwheat; [2]) | Plant Response Index (Q) (Wild Buckwheat; [4]) | Plant Response Index (Q) (Wild Buckwheat; [5]) | Plant Response Index (E) (Common Lambsquarters; Table II, 2 WAT, 5.6 kg/h) | Plant Response Index (E) (Common Lambsquarters; Table II, 4 WAT, 5.6 kg/h) | Plant Response Index (B) (Cocklebur; Table II, 2 WAT, 11.2 kg/h) | Plant Response Index (B) (Cocklebur; Table II, 4 WAT, 11.2 kg/h) | Plant Response Index (B) (Cocklebur; [10]) | Plant Response Index (B) (Cocklebur; Table III, 2 WAT, 1.1 kg/h) | Plant Response Index (B) (Cocklebur; [12]) | Plant Response Index (B) (Cocklebur; Table III, 4 WAT, 1.1 kg/h) | Plant Response Index (B) (Cocklebur; [15]) | Plant Response Index (J) (Downy Brome; [15]) | Plant Response Index (G) (Yellow Nutsedge; 4 WAT, 11.2 kg/h) | Plant Response Index (R) (Hemp Sesbania; 2 WAT, 5.6 kg/h) | Plant Response Index (R) (Hemp Sesbania; 4 WAT, 5.6 kg/h)
